According to US20020137929A1, “1 - (3-heterocyclylphenyl) isothiourea, -isourea, -guanidine and -amidine herbicidal agents” (Intellectual Property Department, BASF Aktiengesellschaft, priority 1998, published 2002):

Experiments:
ABUTH (Velvetleaf) [1] = assay: Postemergence herbicidal evaluation; format: in vivo, Abutilon theophrasti; conditions: postemergence
In short: (§1)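 Compound is applied as a foliar spray to seedlings about two weeks old, formulated in equal parts acetone and water with 0.5% TWEEN 20 and delivered at 40 psi to give about 0.0156–0.500 kg per hectare. Injury is rated visually 0–9 after four to five weeks.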

[2] = tested on: CHEAL (Lambsquarters, Common); assay: Postemergence herbicidal evaluation; format: in vivo, Chenopodium album; conditions: postemergence
In short: as §1

[3] = tested on: IPOHE (Morningglory, Ivyleaf); assay: Postemergence herbicidal evaluation; format: in vivo, Ipomoea hederacea; conditions: postemergence
In short: as §1

ECHCG (Barnyardgrass) [4] = assay: Postemergence herbicidal evaluation; format: in vivo, Echinochloa crus-galli; conditions: postemergence
In short: as §1

SETVI (Foxtail, Green) = assay: Postemergence herbicidal evaluation; format: in vivo, Setaria viridis; conditions: postemergence
In short: as §1

ORYSAT (Rice, Tebonnet) = assay: Postemergence herbicidal evaluation; format: in vivo, Oryza sativa, (L.) Tebonnet; conditions: postemergence
In short: as §1

ZEAMX (Corn, Field) [5] = assay: Postemergence herbicidal evaluation; format: in vivo, Zea mays; conditions: postemergence
In short: as §1

ABUTH (Velvetleaf) [6] = assay: Preemergence herbicidal evaluation; format: in vivo, Abutilon theophrasti; conditions: rated 4-5 weeks after treatment, rating scale 0-9
In short: (§2)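 Greenhouse preemergence test: seed-soil mix sown on ~1 inch soil; aqueous acetone spray at equivalent of ~0.0156–0.500 kg/ha; greenhouse-held and watered; scored 0–9 visually at 4–5 weeks.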

CASOB (Sicklepod) = assay: Preemergence herbicidal evaluation; format: in vivo, Cassia obtusifolia; conditions: rated 4-5 weeks after treatment, rating scale 0-9
In short: as §2

[7] = tested on: CHEAL (Lambsquarters, Common); assay: Preemergence herbicidal evaluation; format: in vivo, Chenopodium album; conditions: rated 4-5 weeks after treatment, rating scale 0-9
In short: as §2

[8] = tested on: IPOHE (Morningglory, Ivyleaf); assay: Preemergence herbicidal evaluation; format: in vivo, Ipomoea hederacea; conditions: rated 4-5 weeks after treatment, rating scale 0-9
In short: as §2

ECHCG (Barnyardgrass) [9] = assay: Preemergence herbicidal evaluation; format: in vivo, Echinochloa crus-galli; conditions: rated 4-5 weeks after treatment, rating scale 0-9
In short: as §2

[10] = tested on: GLXMAW (Soybean, Williams); assay: Preemergence herbicidal evaluation; format: in vivo, Glycine max, (L.) Merr. cv Williams; conditions: rated 4-5 weeks after treatment, rating scale 0-9
In short: as §2

[11] = tested on: TRZAWR (Wheat, Winter, cv Riband); assay: Preemergence herbicidal evaluation; format: in vivo, Triticum aestivum; conditions: rated 4-5 weeks after treatment, rating scale 0-9
In short: as §2

ZEAMX (Corn, Field) [12] = assay: Preemergence herbicidal evaluation; format: in vivo, Zea mays; conditions: rated 4-5 weeks after treatment, rating scale 0-9
In short: as §2

Q: `Cn1c(C(F)(F)F)cc(=O)n(-c2cc(N=C3SCC(=O)N3Cc3cccnc3)c(Cl)cc2F)c1=O` [Compound 132, 3-{4-Chloro-2-fluoro-5-{[4-oxo-3-(3-pyridylmethyl)-2-thiazolidinylidene]amino}phenyl}-1-methyl-6-(trifluoromethyl)-2,4 (1H,3H)-pyrimidinedione] was tested. Which “Herbicidal rating ABUTH” value (ABUTH (Velvetleaf) [1]; rate 0.0156 kg/ha) did it give?
A: 9.0

Q: And the “Herbicidal rating ABUTH” value (ABUTH (Velvetleaf) [1]; rate 0.0313 kg/ha)?
A: 9.0

Q: What about the “Herbicidal rating ABUTH” value (ABUTH (Velvetleaf) [1]; rate 0.0625 kg/ha) of the same compound?
A: 9.0

Q: What about the “Herbicidal rating CHEAL” value ([2]; rate 0.0156 kg/ha) of the same compound?
A: 4.0

Q: What about the “Herbicidal rating CHEAL” value ([2]; rate 0.0313 kg/ha) of the same compound?
A: 4.0

Q: What about the “Herbicidal rating CHEAL” value ([2]; rate 0.0625 kg/ha) of the same compound?
A: 9.0

Q: What about the “Herbicidal rating IPOHE” value ([3]; rate 0.0156 kg/ha) of the same compound?
A: 6.0

Q: And the “Herbicidal rating IPOHE” value ([3]; rate 0.0313 kg/ha)?
A: 9.0

Q: What about the “Herbicidal rating IPOHE” value ([3]; rate 0.0625 kg/ha) of the same compound?
A: 9.0

Q: What about the “Herbicidal rating ECHCG” value (ECHCG (Barnyardgrass) [4]; rate 0.0156 kg/ha) of the same compound?
A: 1.0

Q: What about the “Herbicidal rating ECHCG” value (ECHCG (Barnyardgrass) [4]; rate 0.0313 kg/ha) of the same compound?
A: 2.0

Q: What about the “Herbicidal rating ECHCG” value (ECHCG (Barnyardgrass) [4]; rate 0.0625 kg/ha) of the same compound?
A: 2.0

Q: And the “Herbicidal rating SETVI” value (SETVI (Foxtail, Green); rate 0.0156 kg/ha)?
A: 1.0

Q: What about the “Herbicidal rating SETVI” value (SETVI (Foxtail, Green); rate 0.0313 kg/ha) of the same compound?
A: 4.0

Q: What about the “Herbicidal rating SETVI” value (SETVI (Foxtail, Green); rate 0.0625 kg/ha) of the same compound?
A: 3.0

Q: What about the “Herbicidal rating ORYSAT” value (ORYSAT (Rice, Tebonnet); rate 0.0156 kg/ha) of the same compound?
A: 2.0

Q: What about the “Herbicidal rating ORYSAT” value (ORYSAT (Rice, Tebonnet); rate 0.0313 kg/ha) of the same compound?
A: 3.0

Q: What about the “Herbicidal rating ORYSAT” value (ORYSAT (Rice, Tebonnet); rate 0.0625 kg/ha) of the same compound?
A: 3.5

Q: What about the “Herbicidal rating ZEAMX” value (ZEAMX (Corn, Field) [5]; rate 0.0156 kg/ha) of the same compound?
A: 3.5

Q: What about the “Herbicidal rating ZEAMX” value (ZEAMX (Corn, Field) [5]; rate 0.0313 kg/ha) of the same compound?
A: 4.0

Q: And the “Herbicidal rating ZEAMX” value (ZEAMX (Corn, Field) [5]; rate 0.0625 kg/ha)?
A: 4.5

Q: And the “Preemergence herbicidal rating ABUTH” value (ABUTH (Velvetleaf) [6]; rate 0.0625 kg/ha)?
A: 9.0

Q: And the “Preemergence herbicidal rating ABUTH” value (ABUTH (Velvetleaf) [6]; rate 0.1250 kg/ha)?
A: 9.0

Q: And the “Preemergence herbicidal rating ABUTH” value (ABUTH (Velvetleaf) [6]; rate 0.2500 kg/ha)?
A: 9.0

Q: What about the “Preemergence herbicidal rating CASOB” value (CASOB (Sicklepod); rate 0.0625 kg/ha) of the same compound?
A: 0.0

Q: What about the “Preemergence herbicidal rating CASOB” value (CASOB (Sicklepod); rate 0.2500 kg/ha) of the same compound?
A: 0.0

Q: What about the “Preemergence herbicidal rating CHEAL” value ([7]; rate 0.0625 kg/ha) of the same compound?
A: 9.0

Q: And the “Preemergence herbicidal rating CHEAL” value ([7]; rate 0.1250 kg/ha)?
A: 9.0

Q: What about the “Preemergence herbicidal rating CHEAL” value ([7]; rate 0.2500 kg/ha) of the same compound?
A: 9.0

Q: What about the “Preemergence herbicidal rating IPOHE” value ([8]; rate 0.0625 kg/ha) of the same compound?
A: 0.0

Q: What about the “Preemergence herbicidal rating IPOHE” value ([8]; rate 0.1250 kg/ha) of the same compound?
A: 0.0

Q: And the “Preemergence herbicidal rating IPOHE” value ([8]; rate 0.2500 kg/ha)?
A: 2.0

Q: And the “Preemergence herbicidal rating ECHCG” value (ECHCG (Barnyardgrass) [9]; rate 0.0625 kg/ha)?
A: 0.0

Q: And the “Preemergence herbicidal rating ECHCG” value (ECHCG (Barnyardgrass) [9]; rate 0.1250 kg/ha)?
A: 0.0

Q: And the “Preemergence herbicidal rating ECHCG” value (ECHCG (Barnyardgrass) [9]; rate 0.2500 kg/ha)?
A: 7.0

Q: What about the “Preemergence herbicidal rating GLXMAW” value ([10]; rate 0.0625 kg/ha) of the same compound?
A: 0.0

Q: What about the “Preemergence herbicidal rating GLXMAW” value ([10]; rate 0.1250 kg/ha) of the same compound?
A: 0.0

Q: And the “Preemergence herbicidal rating GLXMAW” value ([10]; rate 0.2500 kg/ha)?
A: 2.0

Q: What about the “Preemergence herbicidal rating TRZAWR” value ([11]; rate 0.0625 kg/ha) of the same compound?
A: 0.0

Q: And the “Preemergence herbicidal rating TRZAWR” value ([11]; rate 0.1250 kg/ha)?
A: 0.0

Q: What about the “Preemergence herbicidal rating TRZAWR” value ([11]; rate 0.2500 kg/ha) of the same compound?
A: 1.0

Q: What about the “Preemergence herbicidal rating ZEAMX” value (ZEAMX (Corn, Field) [12]; rate 0.0625 kg/ha) of the same compound?
A: 0.0

Q: And the “Preemergence herbicidal rating ZEAMX” value (ZEAMX (Corn, Field) [12]; rate 0.1250 kg/ha)?
A: 0.0

Q: What about the “Preemergence herbicidal rating ZEAMX” value (ZEAMX (Corn, Field) [12]; rate 0.2500 kg/ha) of the same compound?
A: 2.0
